# Measured values published in ChEMBL document CHEMBL4196033, “Potent hydrazone derivatives targeting esophageal cancer cells” (Eur J Med Chem, 2018).
# The source made the active and inactive calls. The rule behind the calls is not given here.
# Key:
# ECa-109 cell line [1] = test: Induction of apoptosis in human EC109 cells assessed as early apoptotic cells at 4 uM after 48 hrs by Annexin V-FITC/propidium iodide staining based flow cytometry (reference value: 0.43 to 1.15%); assay type: functional
# ECa-109 cell line [2] = test: Induction of apoptosis in human EC109 cells assessed as late apoptotic cells at 8 uM after 48 hrs by Annexin V-FITC/propidium iodide staining based flow cytometry (reference value: 0.2 to 1.74%); assay type: functional
# ECa-109 cell line [3] = test: Induction of ROS generation in human EC109 cells at 2 uM after 24 hrs by DCFH-DA staining based flow cytometry relative to control; assay type: functional
# EC9706 [4] = test: Effect on Prxs-4 protein expression in human EC9706 cells at 2 to 8 uM after 48 hrs by Western blot analysis; assay type: functional, cell-based
# ECa-109 cell line [5] = test: Induction of apoptosis in human EC109 cells assessed as early apoptotic cells at 8 uM after 48 hrs by Annexin V-FITC/propidium iodide staining based flow cytometry (reference value: 0.43 to 1.15%); assay type: functional
# ECa-109 cell line [6] = test: Induction of apoptosis in human EC109 cells assessed as late apoptotic cells at 2 uM after 48 hrs by Annexin V-FITC/propidium iodide staining based flow cytometry (reference value: 0.2 to 1.74%); assay type: functional
# EC9706 [7] = test: Cell cycle arrest in human EC9706 cells assessed as decrease in G2/M phase population at 8 uM after 24 hrs by propidium iodide staining based flow cytometry relative to control; assay type: functional
# EC9706 [8] = test: Induction of apoptosis in human EC9706 cells assessed as early apoptotic cells at 8 uM after 48 hrs by Annexin V-FITC/propidium iodide staining based flow cytometry (reference value: 0.68 to 1.58%); assay type: functional
# ECa-109 cell line [9] = test: Induction of apoptosis in human EC109 cells assessed as increase in p53 protein expression after 48 hrs by Western blot analysis; assay type: functional, cell-based
# ECa-109 cell line [10] = test: Effect on Prxs-1 protein expression in human EC109 cells at 2 to 8 uM after 48 hrs by Western blot analysis; assay type: functional, cell-based
structure (smiles),measurement,setting,value
COc1ccc(/C=N/NC(=O)c2cccc(S(=O)(=O)N3CCOCC3)c2)c(O)c1,Activity,ECa-109 cell line [1],17.8 - 22.4%
same,Activity,ECa-109 cell line [2],42.4 - 43%
same,fold change (FC),ECa-109 cell line [3],1.81
same,Activity,EC9706 [4],Active
same,Activity,ECa-109 cell line [5],18.7 - 25%
same,Activity,ECa-109 cell line [6],6.84%
same,fold change (FC),EC9706 [7],0.26
same,Activity,EC9706 [8],8.64 - 26%
same,Activity,ECa-109 cell line [9],Dose-dependent effect
same,Activity,ECa-109 cell line [10],Active
